Assay [1] deals with Serine/threonine-protein kinase pim-2 (Homo sapiens, UniProt Q9P1W9). Put plainly: Selectivity interaction (Kinase panel (Z-LYTE Assay)) EUB0001632a PIM2. Conditions: at 10 µM.
The target in assay [2] is Cyclin-dependent kinase 9 (Homo sapiens, UniProt P50750). Put plainly: Selectivity interaction (Kinase panel (KiNativ target engagement assay in Jurkat cells)) EUB0001635a CDK9. Conditions: at 1 µM. The class given is cell-based.
Assay [3] deals with Tyrosine-protein kinase JAK1 (Homo sapiens, UniProt P23458). Put plainly: Selectivity interaction (Kinase panel (KiNativ target engagement assay in Jurkat cells)) EUB0001635a JAK1. The class given is cell-based. Conditions: Selectivity number of off-targets 0.0, Selectivity number of targets 233.0, Source Knowledge https://www.sciencedirect.com/science/article/pii/S2451945619300674?via%3Dihub, at 1 µM.

The target in assay [4] is T1, Myotonin-protein kinase (Homo sapiens) (UniProt Q09013).
T1 sequence (whole entry): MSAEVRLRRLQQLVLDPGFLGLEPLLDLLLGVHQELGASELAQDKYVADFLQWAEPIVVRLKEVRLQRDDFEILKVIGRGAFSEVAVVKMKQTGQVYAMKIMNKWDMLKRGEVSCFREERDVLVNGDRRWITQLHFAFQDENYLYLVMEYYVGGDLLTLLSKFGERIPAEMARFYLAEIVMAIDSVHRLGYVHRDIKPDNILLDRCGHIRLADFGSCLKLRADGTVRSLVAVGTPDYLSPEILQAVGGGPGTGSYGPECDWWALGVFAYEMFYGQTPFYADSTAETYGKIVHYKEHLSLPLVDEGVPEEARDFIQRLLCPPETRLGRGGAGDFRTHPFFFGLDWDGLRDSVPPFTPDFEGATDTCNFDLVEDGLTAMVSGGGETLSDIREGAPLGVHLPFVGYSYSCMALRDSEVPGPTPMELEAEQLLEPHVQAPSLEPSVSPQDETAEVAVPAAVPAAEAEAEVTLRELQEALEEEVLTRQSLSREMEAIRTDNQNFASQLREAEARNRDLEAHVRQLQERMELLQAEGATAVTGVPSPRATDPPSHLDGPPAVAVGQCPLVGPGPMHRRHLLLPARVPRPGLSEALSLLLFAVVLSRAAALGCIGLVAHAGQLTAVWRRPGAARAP
Description: Selectivity interaction (KinomeScan (DiscoverX)) EUB0000607a DMPK. Particulars: at 10 µM.

The target in assay [5] is T2, Tyrosine-protein kinase Tec (Homo sapiens) (UniProt P42680).
T2 sequence (whole entry): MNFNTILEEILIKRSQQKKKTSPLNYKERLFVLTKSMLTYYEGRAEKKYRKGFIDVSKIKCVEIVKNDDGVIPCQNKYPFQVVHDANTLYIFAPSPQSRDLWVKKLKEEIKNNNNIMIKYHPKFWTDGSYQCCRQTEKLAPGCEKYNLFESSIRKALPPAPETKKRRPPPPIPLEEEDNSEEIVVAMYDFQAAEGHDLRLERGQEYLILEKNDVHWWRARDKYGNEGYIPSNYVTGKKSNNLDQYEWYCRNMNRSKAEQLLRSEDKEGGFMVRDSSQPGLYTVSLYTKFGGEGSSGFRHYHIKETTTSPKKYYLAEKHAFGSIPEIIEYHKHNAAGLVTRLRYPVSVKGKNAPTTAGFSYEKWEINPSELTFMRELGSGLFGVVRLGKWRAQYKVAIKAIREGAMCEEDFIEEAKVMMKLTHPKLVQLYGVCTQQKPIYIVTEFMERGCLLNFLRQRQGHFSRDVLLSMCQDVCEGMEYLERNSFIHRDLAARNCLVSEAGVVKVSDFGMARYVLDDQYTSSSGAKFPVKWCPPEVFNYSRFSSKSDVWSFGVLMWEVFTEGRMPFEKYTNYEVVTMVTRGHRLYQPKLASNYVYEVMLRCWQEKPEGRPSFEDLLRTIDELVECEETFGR
Put plainly: Selectivity interaction (KinomeScan (DiscoverX)) EUB0000666a TEC. Conditions: at 10 µM.

The target of assay [6] is Fibroblast growth factor receptor 3 (Homo sapiens, UniProt P22607). Description: Selectivity interaction (Kinase panel (33PanQinase(R) Activity Assay)) EUB0000877a FGFR3.
The target of assay [7] is T3, Serine/threonine-protein kinase Sgk3 (Homo sapiens) (UniProt Q96BR1).
T3 sequence (whole entry): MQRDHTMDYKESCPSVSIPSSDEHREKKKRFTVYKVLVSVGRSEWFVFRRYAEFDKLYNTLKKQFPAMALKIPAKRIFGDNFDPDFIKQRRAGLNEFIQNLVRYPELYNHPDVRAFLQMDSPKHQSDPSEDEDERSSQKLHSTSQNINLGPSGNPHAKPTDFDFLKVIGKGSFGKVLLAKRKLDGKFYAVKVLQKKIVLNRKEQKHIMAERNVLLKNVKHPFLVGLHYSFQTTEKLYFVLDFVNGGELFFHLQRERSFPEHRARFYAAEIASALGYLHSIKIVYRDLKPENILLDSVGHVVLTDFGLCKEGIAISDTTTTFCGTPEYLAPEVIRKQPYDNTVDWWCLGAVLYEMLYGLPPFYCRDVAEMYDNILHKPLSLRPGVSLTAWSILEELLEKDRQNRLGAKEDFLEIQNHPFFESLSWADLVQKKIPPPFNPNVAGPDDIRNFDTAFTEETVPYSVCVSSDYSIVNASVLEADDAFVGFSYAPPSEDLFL
Put plainly: Selectivity interaction (ActivX KiNativ screen (kinase selectivity in THP-1 cell lysates)) EUB0000639a SGK3. The class given is subcellular. Particulars: lysate, at 0.04 µM.

Assay [8] deals with Ribosomal protein S6 kinase alpha-3 (Homo sapiens, UniProt P51812). Put plainly: Selectivity interaction (ActivX KiNativ screen (kinase selectivity in THP-1 cell lysates)) EUB0000639a RPS6KA3. The class given is subcellular. Conditions: lysate.
The target of assay [9] is Protein kinase C gamma type (Homo sapiens) (UniProt P05129). Description: Selectivity interaction (Kinase panel (Invitrogen)) EUB0000639a PRKCG. Conditions: at 200 nM.
In assay [10] the target is T4, Lymphokine-activated killer T-cell-originated protein kinase (Homo sapiens) (UniProt Q96KB5).
T4 sequence (whole entry): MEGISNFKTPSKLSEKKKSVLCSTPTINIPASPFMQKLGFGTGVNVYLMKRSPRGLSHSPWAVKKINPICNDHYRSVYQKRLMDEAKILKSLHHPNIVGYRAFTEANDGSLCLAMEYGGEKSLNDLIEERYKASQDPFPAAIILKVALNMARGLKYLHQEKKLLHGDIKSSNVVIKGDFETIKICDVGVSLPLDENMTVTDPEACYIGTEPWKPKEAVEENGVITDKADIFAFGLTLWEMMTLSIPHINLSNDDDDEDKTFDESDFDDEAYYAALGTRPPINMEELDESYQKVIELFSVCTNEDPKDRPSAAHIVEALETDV
Description: Selectivity interaction (ProQinase) EUB0000171b PBK.

The target of assay [11] is Mitogen-activated protein kinase kinase kinase 11 (Homo sapiens) (UniProt Q16584). Put plainly: Selectivity interaction (KinomeScan (DiscoverX)) EUB0000045b MAP3K11.

In general, IC50 refers to the concentration that inhibits the measured activity by half. The low end stands for greater potency in that assay, the high end for weaker potency in that assay.

Molecules are shown by their SMILES.

Sequence of Ribosomal protein S6 kinase alpha-3 (P51812 whole entry): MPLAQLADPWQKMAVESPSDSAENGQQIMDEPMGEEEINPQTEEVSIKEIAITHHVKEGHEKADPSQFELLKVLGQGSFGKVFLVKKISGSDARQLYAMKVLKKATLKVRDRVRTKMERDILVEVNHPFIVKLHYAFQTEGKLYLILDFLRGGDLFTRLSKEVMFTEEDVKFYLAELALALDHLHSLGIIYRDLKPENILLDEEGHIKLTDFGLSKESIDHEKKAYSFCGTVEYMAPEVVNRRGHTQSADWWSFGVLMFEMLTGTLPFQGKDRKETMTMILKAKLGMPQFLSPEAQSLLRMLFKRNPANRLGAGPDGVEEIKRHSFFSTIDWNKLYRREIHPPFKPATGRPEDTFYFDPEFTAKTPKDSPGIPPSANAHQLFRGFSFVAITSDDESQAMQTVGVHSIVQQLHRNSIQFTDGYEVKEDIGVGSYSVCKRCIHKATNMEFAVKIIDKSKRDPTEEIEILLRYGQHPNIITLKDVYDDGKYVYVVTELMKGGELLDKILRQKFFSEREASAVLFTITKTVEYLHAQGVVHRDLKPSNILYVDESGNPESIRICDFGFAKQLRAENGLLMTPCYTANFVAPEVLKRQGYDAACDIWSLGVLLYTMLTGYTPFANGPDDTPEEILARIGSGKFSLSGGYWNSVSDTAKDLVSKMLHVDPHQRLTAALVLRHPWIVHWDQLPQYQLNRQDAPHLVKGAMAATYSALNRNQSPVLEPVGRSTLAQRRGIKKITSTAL
Sequence of Mitogen-activated protein kinase kinase kinase 11 (Homo sapiens) (Q16584 whole entry, looked up): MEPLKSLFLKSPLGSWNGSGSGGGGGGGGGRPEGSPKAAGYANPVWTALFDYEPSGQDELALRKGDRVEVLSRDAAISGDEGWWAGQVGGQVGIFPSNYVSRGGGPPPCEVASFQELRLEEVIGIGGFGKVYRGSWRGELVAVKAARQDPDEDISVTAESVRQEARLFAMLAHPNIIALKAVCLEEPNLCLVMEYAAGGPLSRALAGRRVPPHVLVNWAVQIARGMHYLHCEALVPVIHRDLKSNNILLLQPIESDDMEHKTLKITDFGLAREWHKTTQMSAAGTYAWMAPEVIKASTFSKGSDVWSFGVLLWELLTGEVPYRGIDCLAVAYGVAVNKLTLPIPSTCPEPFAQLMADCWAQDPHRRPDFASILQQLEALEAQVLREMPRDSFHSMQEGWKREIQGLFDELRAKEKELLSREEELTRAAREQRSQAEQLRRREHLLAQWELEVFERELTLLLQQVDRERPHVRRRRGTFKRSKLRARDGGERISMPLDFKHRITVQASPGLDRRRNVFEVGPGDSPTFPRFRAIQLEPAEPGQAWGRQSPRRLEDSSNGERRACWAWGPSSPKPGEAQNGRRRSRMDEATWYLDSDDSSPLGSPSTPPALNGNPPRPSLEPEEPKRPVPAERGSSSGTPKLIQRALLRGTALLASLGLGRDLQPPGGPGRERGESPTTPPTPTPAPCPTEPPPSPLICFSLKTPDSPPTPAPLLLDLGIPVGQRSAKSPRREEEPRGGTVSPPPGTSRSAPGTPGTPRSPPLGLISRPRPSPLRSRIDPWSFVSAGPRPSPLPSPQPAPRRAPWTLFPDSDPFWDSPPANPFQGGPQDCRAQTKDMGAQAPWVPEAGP
Sequence of Fibroblast growth factor receptor 3 (P22607 whole entry): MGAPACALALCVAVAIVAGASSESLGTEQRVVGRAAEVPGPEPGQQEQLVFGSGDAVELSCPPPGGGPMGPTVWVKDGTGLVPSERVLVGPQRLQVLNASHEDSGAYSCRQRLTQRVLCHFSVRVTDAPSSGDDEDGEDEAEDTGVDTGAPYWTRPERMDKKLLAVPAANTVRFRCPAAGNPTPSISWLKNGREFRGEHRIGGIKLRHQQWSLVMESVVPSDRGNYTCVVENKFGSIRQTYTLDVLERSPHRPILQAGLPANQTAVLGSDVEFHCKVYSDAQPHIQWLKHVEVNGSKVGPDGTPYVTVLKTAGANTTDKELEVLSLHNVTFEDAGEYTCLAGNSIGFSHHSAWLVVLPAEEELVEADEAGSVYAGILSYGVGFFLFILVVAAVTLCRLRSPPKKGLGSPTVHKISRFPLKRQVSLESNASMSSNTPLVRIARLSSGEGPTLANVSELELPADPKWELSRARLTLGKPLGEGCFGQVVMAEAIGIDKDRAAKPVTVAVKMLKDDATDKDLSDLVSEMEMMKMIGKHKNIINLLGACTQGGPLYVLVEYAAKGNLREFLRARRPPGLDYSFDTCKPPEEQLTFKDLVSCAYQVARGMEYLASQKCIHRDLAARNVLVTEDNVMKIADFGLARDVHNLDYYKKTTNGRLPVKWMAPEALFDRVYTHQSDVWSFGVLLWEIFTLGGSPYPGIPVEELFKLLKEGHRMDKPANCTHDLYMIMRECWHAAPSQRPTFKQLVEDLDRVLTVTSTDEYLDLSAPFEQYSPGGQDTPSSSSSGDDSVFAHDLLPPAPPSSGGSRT
Sequence of Tyrosine-protein kinase JAK1 (P23458 whole entry): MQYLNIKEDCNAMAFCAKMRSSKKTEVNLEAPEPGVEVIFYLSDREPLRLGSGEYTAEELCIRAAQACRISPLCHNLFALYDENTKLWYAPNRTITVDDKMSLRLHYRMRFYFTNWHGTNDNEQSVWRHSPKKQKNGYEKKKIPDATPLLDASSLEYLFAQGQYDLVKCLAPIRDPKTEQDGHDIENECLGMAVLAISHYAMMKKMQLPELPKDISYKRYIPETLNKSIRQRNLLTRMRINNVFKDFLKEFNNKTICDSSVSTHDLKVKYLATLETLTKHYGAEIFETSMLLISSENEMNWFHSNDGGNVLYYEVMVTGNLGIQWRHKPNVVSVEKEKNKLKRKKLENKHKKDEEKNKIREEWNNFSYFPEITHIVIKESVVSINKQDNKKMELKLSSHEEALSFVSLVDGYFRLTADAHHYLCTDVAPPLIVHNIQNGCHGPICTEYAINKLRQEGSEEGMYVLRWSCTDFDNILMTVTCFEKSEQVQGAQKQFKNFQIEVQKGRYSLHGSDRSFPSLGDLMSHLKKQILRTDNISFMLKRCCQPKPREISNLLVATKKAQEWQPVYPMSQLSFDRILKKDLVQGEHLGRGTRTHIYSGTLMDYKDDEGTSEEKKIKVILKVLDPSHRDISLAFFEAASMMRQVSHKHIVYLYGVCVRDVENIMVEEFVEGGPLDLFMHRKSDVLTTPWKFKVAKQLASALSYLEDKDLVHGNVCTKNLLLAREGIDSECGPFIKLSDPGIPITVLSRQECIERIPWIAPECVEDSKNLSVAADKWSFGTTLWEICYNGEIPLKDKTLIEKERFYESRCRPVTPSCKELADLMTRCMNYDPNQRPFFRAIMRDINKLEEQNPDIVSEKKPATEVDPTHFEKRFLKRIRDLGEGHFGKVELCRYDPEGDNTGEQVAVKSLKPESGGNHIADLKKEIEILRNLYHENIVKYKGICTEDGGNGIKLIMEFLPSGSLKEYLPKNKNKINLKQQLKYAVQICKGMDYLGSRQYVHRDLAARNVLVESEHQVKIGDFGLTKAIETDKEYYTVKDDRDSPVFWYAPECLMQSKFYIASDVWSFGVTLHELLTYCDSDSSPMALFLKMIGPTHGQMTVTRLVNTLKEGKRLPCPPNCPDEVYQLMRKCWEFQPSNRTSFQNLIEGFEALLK
Sequence of Serine/threonine-protein kinase pim-2 (Q9P1W9 whole entry, looked up): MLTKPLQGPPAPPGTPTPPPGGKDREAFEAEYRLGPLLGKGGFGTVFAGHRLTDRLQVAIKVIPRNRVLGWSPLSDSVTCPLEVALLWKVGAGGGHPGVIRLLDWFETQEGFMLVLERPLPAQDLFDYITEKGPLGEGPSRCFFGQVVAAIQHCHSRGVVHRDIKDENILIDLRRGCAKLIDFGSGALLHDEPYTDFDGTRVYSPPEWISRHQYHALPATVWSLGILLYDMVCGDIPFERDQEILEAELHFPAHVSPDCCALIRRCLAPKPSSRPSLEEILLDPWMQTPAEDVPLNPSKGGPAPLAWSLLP
Sequence of Cyclin-dependent kinase 9 (P50750 whole entry): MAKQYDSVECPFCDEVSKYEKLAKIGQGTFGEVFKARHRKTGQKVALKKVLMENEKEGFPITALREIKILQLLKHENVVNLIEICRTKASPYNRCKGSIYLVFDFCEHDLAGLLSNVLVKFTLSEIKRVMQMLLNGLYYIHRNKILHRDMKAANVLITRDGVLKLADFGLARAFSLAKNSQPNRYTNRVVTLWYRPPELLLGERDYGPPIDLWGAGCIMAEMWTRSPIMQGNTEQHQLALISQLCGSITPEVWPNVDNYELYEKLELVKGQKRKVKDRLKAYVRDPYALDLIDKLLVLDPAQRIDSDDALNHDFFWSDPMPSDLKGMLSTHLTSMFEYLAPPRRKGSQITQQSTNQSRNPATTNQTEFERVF

The compound `Cn1cc(-n2cnc3c(NCc4nc5cc(Cl)c(Cl)cc5[nH]4)nc(N4CCOCC4)nc32)cn1` showed a % of control in [1] of 0.824%.

In the case of `C=CC(=O)Nc1ccc(C(=O)Nc2[nH]nc3c2CN(C(=O)N[C@H](CN(C)C)c2ccccc2)C3(C)C)cc1`, the % of engagement in [2] is -78.1%; in assay [3], 3.6%.

Consider `CNC(=O)Nc1ccc(-c2nc(N3CC4CCC(C3)O4)c3cnn(C4CCC5(CC4)OCCO5)c3n2)cc1`, for which the % of control in assay [4] turned out to be 83%.

In assay [5], `O=C(NOC[C@H](O)CO)c1ccc(F)c(F)c1Nc1ccc(I)cc1F` registered a % of control of 100%.

With `CCC(=O)N1CC[C@H](Nc2ncnc3c2CN(c2cnc(OC)c(C(F)(F)F)c2)CC3)C1` [LENIOLISIB], the IC50 in assay [6] was greater than 10 µM.

In the case of `CC[C@@H]1[C@H](F)C(=O)N[C@@H]1COc1nccc2cc(C(N)=O)c(OC)cc12` [ZIMLOVISERTIB], the % of inhibition came to 3.1% in [7]; 16.9% in assay [8] (at 0.01 µM); 12.4% in assay [8] (at 0.04 µM); 10.3% in assay [8] (at 0.2 µM); 8.6% in assay [8] (at 1 µM); 11.7% in assay [8] (at 5 µM). This compound also yielded a % of inhibition in [9] of 12.1%.

Take `C=CC(=O)Nc1cccc(C(=O)Nc2ccc(Nc3cc(-c4[nH]c(SC)nc4C)ccn3)cc2)c1`: the % of control is 141% in assay [10] (at 1 µM) and 89% in [10] (at 5 µM).

In the case of `C=CC(=O)Nc1cc(-n2c(=O)ccc3cnc4ccc(-c5ccc(NS(C)(=O)=O)cc5)cc4c32)ccc1C`, the % of control amounted to 91% in assay [11] (at 1 µM) and 87% in [11] (at 10 µM).
